Results from patent publication US20150307938A1, “METHOD TO IDENTIFY A NOVEL CLASS OF IMMUNOLOGIC ADJUVANTS” (Lancell, L.L.C., priority 2011, published 2015).

Key:
[1] = tested on: tumor; design: species or system mice; details: mouse, in vivo
[2] = tested on: dendritic cells; assay: 48 hr response of wild-type and Caspase-1−/− mice to topical FITC+DBP (flow cytometry of draining lymph node); assay type: in vivo; details: vs wild-type
Protocol: We also tested the relevance of a second dendritic cell activation system that intersects with TLR, the NALP inflammasome (reviewed in Franchi, L. et al. 2009 “The inflammasome: a Caspase-1-activation platform that regulates immune responses and disease pathogenesis” Nature Immunology 10:241-247).
Mice were treated topically on the shaved abdominal skin with FITC dissolved in acetone (5 mg/ml) combined with an equal volume of DBP. Two days later, the skin draining inguinal lymph node cells were stained for immunofluorescent flow cytometry using monoclonal antibodies specific for CD19, CD11c, CD40, I-Ab, CD80, and CD86 obtained from BD Pharmingen, and detected using a Becton Dickenson FACSCalibur followed by analysis of the data using FlowJo software.

[3] = tested on: skin; details: in vivo
[4] = Estimate of maximum absorbed dose from transdermal transport rate of DBP on human skin in vivo; details: from known transdermal transport rate on human skin in vivo

Q: Which tumor-specific immunity [1] does the source give for `CCCCOC(=O)c1ccccc1C(=O)OCCCC` [DBP, dibutylphthalate] here?
A: Protective and therapeutic tumor-specific immunity were induced

Q: And the “dendritic cell response in Casp−/− mice” value [2]?
A: undiminished

Q: And the “histologic evidence of contact hypersensitivity” value [3]?
A: no histologic evidence of contact hypersensitivity

Q: And the “maximum absorbed dose from topical use as an adjuvant, vs LOEL in pregnant rats” value [4]?
A: five logs lower than the LOEL

Q: What about the “maximum absorbed dose from topical use as an adjuvant, vs amount ingested daily” value [4] of the same molecule?
A: no higher than the amount we ingest daily
